According to patent US12611432B2 (priority 2017, dated 2026):

Tests used:
[1] = system: castration-resistant prostate cancer (CRPC); details: monotherapy, patients with CRPC; cited from earlier work
Myc-CaP cells = type: cell-based, murine; details: 1 μM mitoxantrone, live or heat killed CP1 MOI 10, 24 or 72 hours
Method: (a) LDH level, as a measure of cell death, from CP1 and Myc-CaP co-culture, performed in triplicates. (b-i) Myc-CaP cell were co-cultured with Mx, CP1(MOI 1), or MG1655 (MOI 1) (b, d, g) in normal media or (c, e, f, h, i) with gentamicin (+ G) added after 2 hours. (b, c) ICD was measured via HMGB1 (ELISA, 72 hours), ATP (luminescence assay, 72 hours), and calreticulin (flow cytometry, 24 or 72 hours), performed in biological triplicates, technical duplicates. (d-f) Caspase 3/7 activity (luminescence assay) was measured at (d, e) 6 hours or (f) 24 hours, (d) normalized to cell count (MTT assay), performed in sextuplicates. (g, h) Early stage apoptosis (Annexin V^+PI^-) and late stage apoptosis (Annexin V+PI+) were determined by flow cytometry after 24 hours, performed in triplicates. (i) Western blot analysis of phosphorylated and total MLKL, RIP1, RIP3, full length and cleaved PARP, and β-actin after 24 hours, performed in triplicates.
For indicated in vitro assays, CP1 was heat killed at 70° C. for 45 minutes. […] Additionally, supernatant was assessed for lactate dehydrogenase (LDH) levels as a measure of cell death (CytoTox 96 Non-Radioactive Cytotoxicity Assay, Promega). […] Cells counts were taken at the times of supernatant collection, which were frozen at −80° C. until use for quantifying secreted ATP (Bioluminescent Assay Kit, Sigma) and HMGB1 (ELISA, Tecan Trading).

[2] = system: PTEN KO orthotopic tumors; assay: FTY720 blockade of T cell recruitment in PTEN KO tumor-bearing mice; type: in vivo
Method: Survival endpoint was defined by the appearance of hemorrhagic abdominal ascites and/or decreased grooming, ambulation, or piloerection. Volume of all tumor experiments was calculated using caliper measurements at π/6×L×W×H, where L is length of longest axis of the tumor, and W and H are the perpendicular width and height, respectively.
For all in vivo experiments, CP1 was administered intra-urethrally on day 8 post-tumor injection. […]
The Ability of CP1 to Potentiate PD-1 Blockade is Partially Dependent on Increased TIL Recruitment To determine if CP1's ability to recruit lymphocytes into the tumor is necessary for its proven synergy with PD-1 blockade, fingolimod (FTY720), a sphingosine-1 phosphate mimetic that blocks egress of T cells from the lymph nodes into peripheral tissues, was administered. PTEN KO orthotopic tumor-bearing mice were treated with CP1 and anti-PD-1, with the addition of FTY720 administration beginning immediately before CP1 administration, to specifically block CP1-induced T cell infiltration into the tumor without inhibiting the quantity or function of the baseline TILs present in these tumors.

nivolumab
overall survival (OS) [1]: no improvement in overall survival (OS)

ipilimumab
overall survival (OS) [1]: no improvement in overall survival (OS)

O=C1c2c(O)ccc(O)c2C(=O)c2c(NCCNCCO)ccc(NCCNCCO)c21 [mitoxantrone]
ICD markers: secreted HMGB1, secreted ATP, cell surface calreticulin (Myc-CaP cells): elevated

CCCCCCCCc1ccc(CCC(N)(CO)CO)cc1 [FTY720, Fingolimod]
tumor volume, mean [2]: 1394 mm^3
